Laboratory results: ChEMBL document CHEMBL5634130, “Exploring the structural-activity relationship of hexahydropyrazino[1,2-d]pyrido[3,2-b][1,4]oxazine derivatives as potent and orally-bioavailable PARP7 inhibitors” (Eur J Med Chem, 2023)
Values after ≈ are worked out from the molar mass of the structure shown. Active and inactive are the calls of the source. No cut-off for these calls is given here.

Key:
NCI-H1373 [1] = experiment: Antitumor activity against human NCI-H1373 cells xenografted in […] SCID mouse model assessed as tumor growth inhibition at 30 mg/kg, po administered everyday measured after 21 days relative to control; type: functional; conditions: NCI-H1373, 504 h, time 21 day, read-out: TGI
[2] = Half life in fasted ICR mouse at 10 mg/kg, po measured for 24 hrs by LC-MS analysis; type: ADME, organism-based; conditions: in vivo
[3] = Volume of distribution at steady state in fasted Beagle dog at 2 mg/kg, iv measured for 24 hrs by LC-MS analysis; type: ADME, organism-based, Canis lupus familiaris; conditions: in vivo, read-out: Vdss
[4] = Tmax in fasted Beagle dog at 10 mg/kg, po measured for 24 hrs by LC-MS analysis; type: ADME, organism-based, Canis lupus familiaris; conditions: in vivo
[5] = Volume of distribution at steady state in fasted ICR mouse at 2 mg/kg, iv measured for 24 hrs by LC-MS analysis; type: ADME, organism-based; conditions: in vivo, read-out: Vdss
[6] = molecular target: T1, Protein mono-ADP-ribosyltransferase PARP11 (Homo sapiens, UniProt Q9NR21); experiment: Inhibition of PARP11 (unknown origin)
T1 sequence (Q9NR21 whole entry): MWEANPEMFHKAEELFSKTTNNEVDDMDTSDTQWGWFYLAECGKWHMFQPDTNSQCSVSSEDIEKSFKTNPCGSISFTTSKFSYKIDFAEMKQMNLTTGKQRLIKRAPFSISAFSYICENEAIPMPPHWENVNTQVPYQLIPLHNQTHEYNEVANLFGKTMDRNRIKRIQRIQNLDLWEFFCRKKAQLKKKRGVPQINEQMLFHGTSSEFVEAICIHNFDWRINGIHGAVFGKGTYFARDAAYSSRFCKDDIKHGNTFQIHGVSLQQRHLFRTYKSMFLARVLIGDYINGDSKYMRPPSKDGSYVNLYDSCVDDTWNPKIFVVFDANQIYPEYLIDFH

[7] = Cmax in fasted Beagle dog at 10 mg/kg, po measured for 24 hrs by LC-MS analysis; type: ADME, organism-based, Canis lupus familiaris; conditions: in vivo
[8] = Oral bioavailability in fasted ICR mouse at 10 mg/kg measured for 24 hrs by LC-MS analysis; type: ADME, organism-based; conditions: in vivo
[9] = molecular target: T2, Protein mono-ADP-ribosyltransferase PARP12 (Homo sapiens, UniProt Q9H0J9); experiment: Inhibition of PARP12 (unknown origin)
T2 sequence (Q9H0J9 whole entry): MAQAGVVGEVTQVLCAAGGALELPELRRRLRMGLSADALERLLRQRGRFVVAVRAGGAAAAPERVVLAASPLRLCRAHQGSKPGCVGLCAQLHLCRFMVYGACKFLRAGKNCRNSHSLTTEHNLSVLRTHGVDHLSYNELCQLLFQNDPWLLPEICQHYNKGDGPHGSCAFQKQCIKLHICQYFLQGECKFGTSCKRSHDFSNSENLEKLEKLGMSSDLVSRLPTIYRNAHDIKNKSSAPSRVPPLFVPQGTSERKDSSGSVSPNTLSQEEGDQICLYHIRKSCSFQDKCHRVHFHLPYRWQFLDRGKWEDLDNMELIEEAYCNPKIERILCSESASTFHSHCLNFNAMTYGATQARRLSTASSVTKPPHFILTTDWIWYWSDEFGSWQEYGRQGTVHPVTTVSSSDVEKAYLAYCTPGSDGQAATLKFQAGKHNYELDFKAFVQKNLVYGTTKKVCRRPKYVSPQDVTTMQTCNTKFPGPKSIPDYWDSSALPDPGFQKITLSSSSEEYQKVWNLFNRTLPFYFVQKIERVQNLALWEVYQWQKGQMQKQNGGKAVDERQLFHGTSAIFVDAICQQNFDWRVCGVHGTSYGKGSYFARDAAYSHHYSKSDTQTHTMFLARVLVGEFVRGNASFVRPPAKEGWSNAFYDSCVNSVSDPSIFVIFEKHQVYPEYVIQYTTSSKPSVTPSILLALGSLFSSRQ

[10] = Half life in fasted ICR mouse at 2 mg/kg, iv measured for 24 hrs by LC-MS analysis; type: ADME, organism-based; conditions: in vivo
[11] = AUC in fasted Beagle dog at 2 mg/kg, iv measured for 24 hrs by LC-MS analysis; type: ADME, organism-based, Canis lupus familiaris; conditions: Beagle, in vivo
[12] = Thermodynamic solubility of compound at pH 6.5; type: physicochemical; conditions: buffer, read-out: Therm_solubility
RAW264.7 = experiment: Inhibition of PARP7 in mouse RAW264.7 cells assessed as increase in IFN-beta level incubated for 24 hrs by ELISA; type: cell-based
[13] = Plasma protein binding in dog at 2 uM incubated for 1 hr by LC/MS analysis; type: ADME, cell-free, Canis lupus familiaris; conditions: read-out: PPB (converted)
NCI-H1373 [14] = experiment: Antiproliferative activity against human NCI-H1373 cells assessed as inhibition of cell viability incubated for 4 days by luminescence based assay; conditions: NCI-H1373, 96 h
MDA-MB-436 [15] = experiment: Antiproliferative activity against human MDA-MB-436 cells assessed as inhibition of cell viability at 0.1 uM incubated for 7 days by luminescence based assay; type: functional; conditions: time 7.0 day
Cytochrome P450 2C19 = Cytochrome P450 2C19 (Homo sapiens, UniProt P33261); experiment: Inhibition of CYP2C19 in human liver microsomes using mephenytoin as substrate preincubated for 10 mins followed by substrate addition measured for 30 mins by LC-MS analysis; type: ADME, Microsome
Cytochrome P450 2C19, sequence (P33261 whole entry): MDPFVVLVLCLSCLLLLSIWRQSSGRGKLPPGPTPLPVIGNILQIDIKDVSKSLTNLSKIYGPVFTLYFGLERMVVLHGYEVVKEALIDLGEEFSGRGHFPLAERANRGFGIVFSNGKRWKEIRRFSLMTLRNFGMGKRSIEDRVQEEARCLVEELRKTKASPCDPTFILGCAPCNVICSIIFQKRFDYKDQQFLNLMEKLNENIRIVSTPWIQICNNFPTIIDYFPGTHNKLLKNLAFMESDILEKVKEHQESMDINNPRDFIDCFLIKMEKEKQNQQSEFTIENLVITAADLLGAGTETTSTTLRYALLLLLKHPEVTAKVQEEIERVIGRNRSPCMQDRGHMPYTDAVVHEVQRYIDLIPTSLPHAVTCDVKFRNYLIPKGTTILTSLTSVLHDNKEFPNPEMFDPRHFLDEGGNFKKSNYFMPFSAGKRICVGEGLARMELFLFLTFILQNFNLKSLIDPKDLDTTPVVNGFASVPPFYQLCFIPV

[16] = Passive permeability in MDCKII-MDR1 cells incubated for 2 hrs by LC-MS analysis; type: ADME, cell-based, Canis lupus familiaris; conditions: dog, MDCK-MDR1, read-out: permeability
[17] = Thermodynamic solubility of compound at pH 7.4; type: physicochemical; conditions: buffer, read-out: Therm_solubility
[18] = Clearance in fasted ICR mouse at 2 mg/kg, iv measured for 24 hrs by LC-MS analysis; type: ADME, organism-based; conditions: in vivo
MDA-MB-436 [19] = experiment: Antiproliferative activity against human MDA-MB-436 cells assessed as inhibition of cell viability incubated for 7 days by luminescence based assay; type: functional; conditions: MDA-MB-436, 168 h
[20] = Tmax in fasted ICR mouse at 10 mg/kg, po measured for 24 hrs by LC-MS analysis; type: ADME, organism-based; conditions: in vivo

## O=C(CCOC[C@@H]1CCN1c1cn[nH]c(=O)c1C(F)(F)F)N1CCN2c3ncc(C(F)(F)F)cc3OC[C@@H]2C1
NCI-H1373 [1]
  inhibition in vivo at 30 mg/kg: 75.2%
[2]
  t1/2: 222 min
[3]
  Vd: 0.948 L/kg
[4]
  Tmax: 24.6 min
[5]
  Vd: 1.77 L/kg
[6]
  IC50: > 1 µM
[7]
  Cmax: 2300 ng/mL
[8]
  bioavailability: 33.9%
[9]
  IC50: 0.36 µM
[10]
  half-life: 42 min
[11]
  AUC at 24 h: 3480 ng·h/mL
[12]
  solubility thermodynamic: 113 µg/mL (≈ 201 µM)
RAW264.7
  inhibition: Active
[13]
  fraction unbound at 1 h, 2 µM: 0.006
NCI-H1373 [14]
  IC50: 0.0041 µM
MDA-MB-436 [15]
  Activity: inactive
Cytochrome P450 2C19
  IC50: 7.55 µM
[16]
  Papp at 2 h: 0.852 ×10⁻⁶ cm/s
[17]
  solubility thermodynamic: 114 µg/mL (≈ 203 µM)
[18]
  clearance: 49.2 mL/min/kg
MDA-MB-436 [19]
  IC50: > 10 µM
[20]
  Tmax: 24 min
